From patent publication US6087493A, “Porphyrin compounds as telomerase inhibitors” (Regents of the University of Texas System, priority 1998, dated 2000)

What follows are compounds tested against human telomerase (Homo sapiens, UniProt O14746) (assay: Telomerase inhibition, primer extension assay in HeLa cell extract). Settings: not given.
Sequence of human telomerase (O14746 whole entry): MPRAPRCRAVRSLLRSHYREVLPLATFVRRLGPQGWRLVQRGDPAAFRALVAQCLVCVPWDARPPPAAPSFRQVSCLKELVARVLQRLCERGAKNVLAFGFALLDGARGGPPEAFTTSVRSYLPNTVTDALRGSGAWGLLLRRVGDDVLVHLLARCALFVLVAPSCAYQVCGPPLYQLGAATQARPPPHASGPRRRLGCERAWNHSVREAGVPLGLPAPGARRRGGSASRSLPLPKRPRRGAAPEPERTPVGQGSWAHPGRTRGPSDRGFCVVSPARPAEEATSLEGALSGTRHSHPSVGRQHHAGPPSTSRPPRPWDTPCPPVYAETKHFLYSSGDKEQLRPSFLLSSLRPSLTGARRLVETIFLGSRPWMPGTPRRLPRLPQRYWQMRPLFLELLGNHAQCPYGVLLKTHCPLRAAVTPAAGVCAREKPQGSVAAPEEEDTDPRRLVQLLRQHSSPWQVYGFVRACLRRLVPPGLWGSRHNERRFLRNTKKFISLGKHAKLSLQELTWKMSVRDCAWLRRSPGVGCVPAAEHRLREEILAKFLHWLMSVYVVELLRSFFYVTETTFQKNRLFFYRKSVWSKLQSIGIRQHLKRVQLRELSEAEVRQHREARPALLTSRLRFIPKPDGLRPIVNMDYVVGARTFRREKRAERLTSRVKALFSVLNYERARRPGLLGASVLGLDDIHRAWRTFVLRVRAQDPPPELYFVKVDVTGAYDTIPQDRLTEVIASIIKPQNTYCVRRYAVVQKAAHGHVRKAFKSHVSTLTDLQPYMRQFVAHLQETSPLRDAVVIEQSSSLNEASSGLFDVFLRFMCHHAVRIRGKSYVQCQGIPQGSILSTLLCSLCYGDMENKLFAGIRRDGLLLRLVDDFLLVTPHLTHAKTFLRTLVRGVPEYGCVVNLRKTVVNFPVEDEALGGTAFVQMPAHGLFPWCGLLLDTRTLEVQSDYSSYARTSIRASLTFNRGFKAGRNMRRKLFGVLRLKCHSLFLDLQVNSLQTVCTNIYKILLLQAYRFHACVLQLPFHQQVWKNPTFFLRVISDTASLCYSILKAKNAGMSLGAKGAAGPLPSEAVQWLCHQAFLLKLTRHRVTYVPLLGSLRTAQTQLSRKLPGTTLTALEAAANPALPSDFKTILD
Assay type: biochemical
With “Copper(II)tetra-N-methyl-tetrazaphthalocyanine [Compound D7]” the “telomerase inhibition in words” value was “only slight activity”.
For `C[n+]1ccc(-c2c3nc(c(-c4cc[n+](C)cc4)c4ccc([n-]4)c(-c4cc[n+](C)cc4)c4nc(c(-c5cc[n+](C)cc5)c5ccc2[n-]5)C=C4)C=C3)cc1.[Cl-].[Cl-].[Cl-].[Cl-].[Zn+2]` [TMPyP4 ZnII], the “telomerase inhibition in words” value was “better inhibitors”.
With “Copper(II)tetraaminophthalocyanine [Compound B14]” the “telomerase inhibition in words” value was “active”.
In the case of “5,10-di-(N-methyl-4-pyridyl)-15,20-di-(3-nitrophenyl)porphine chloride [Compound D20]”, the “telomerase inhibition in words” value is reported as “good activity”.

Same assay, conditions: 25 µM
With `C[n+]1ccc(-c2c3nc(c(-c4cc[n+](C)cc4)c4ccc([n-]4)c(-c4cc[n+](C)cc4)c4nc(c(-c5cc[n+](C)cc5)c5ccc2[n-]5)C=C4)C=C3)cc1.[Cl-].[Cl-].[Cl-].[Cl-].[Zn+2]` [TMPyP4 ZnII] the “% Inhibition of telomerase” value was 88%.

Same assay, conditions: 25 μM; Table 5
For “Ethylenediamine protoporphyrin-IX [Compound B19]”, the “% Inhibition of telomerase” value was 0%.

Same assay, conditions: 25 μM; Table 5; read-out: % Inhibition of telomerase
`C[n+]1ccccc1-c1c2nc(c(-c3cccc[n+]3C)c3ccc([nH]3)c(-c3cccc[n+]3C)c3nc(c(-c4cccc[n+]4C)c4ccc1[nH]4)C=C3)C=C2` [Compound B8, Tetra(N-methyl-2-pyridyl)porphyrin chloride] showed an inhibition at 25 µM of 0%.
With `C[N+](C)(C)c1ccc(-c2c3nc(c(-c4ccc([N+](C)(C)C)cc4)c4ccc([nH]4)c(-c4ccc([N+](C)(C)C)cc4)c4nc(c(-c5ccc([N+](C)(C)C)cc5)c5ccc2[nH]5)C=C4)C=C3)cc1` [TAP (B23), tetra(N,N,N-trimethyl-4-aminophenyl)porphyrin chloride] the inhibition at 25 µM was 6%.

Same assay, conditions: 25 μM; Table 6
For “5,10-di-(N-methyl-3-quinolyl)-15,20-di-(N-methyl-3-pyridyl)porphine chloride [Compound D12]”, the “% Inhibition of telomerase” value was 80%.

Same assay, conditions: 25 μM; Table 7; read-out: % Inhibition of telomerase
`C[n+]1cccc(-c2c3nc(c(-c4ccc[n+](C)c4)c4ccc([nH]4)c(-c4ccc[n+](C)c4)c4nc(c(-c5ccccc5)c5ccc2[nH]5)C=C4)C=C3)c1` [Compound B10, Tri(N-methyl-3-pyridyl)phenylporphyrin chloride] gave an inhibition at 25 µM of 42%.
`Cc1ccc(-c2c3nc(c(-c4ccc(C)cc4)c4ccc([nH]4)c(-c4cc[n+](C)cc4)c4nc(c(-c5ccc(C)cc5)c5ccc2[nH]5)C=C4)C=C3)cc1` [Compound D9, 5-(N-methyl-4-pyridyl)-10,15,20-(4-methylphenyl)porphine chloride] was tested, and the inhibition at 25 µM was 31%.
Work on `C[n+]1ccc(-c2c3nc(c(-c4ccccc4)c4ccc([nH]4)c(-c4ccccc4)c4nc(c(-c5cc[n+](C)cc5)c5ccc2[nH]5)C=C4)C=C3)cc1` [Compound B5, 5,10-Diphenyl-15,20-di(N-methyl-4-pyridyl)porphyrin chloride] yielded an inhibition at 25 µM of 20%.
For `C[n+]1ccc(-c2c3nc(c(-c4cc[n+](C)cc4)c4ccc([nH]4)c(-c4cc[n+](C)cc4)c4nc(c(-c5ccccc5)c5ccc2[nH]5)C=C4)C=C3)cc1` [Compound B6, Tri(N-methyl-4-pyridyl)phenylporphyrin chloride], the inhibition at 25 µM was 15%.
Work on `C[n+]1cccc(-c2c3nc(c(-c4ccc[n+](C)c4)c4ccc([nH]4)c(-c4ccccc4)c4nc(c(-c5ccccc5)c5ccc2[nH]5)C=C4)C=C3)c1` [Compound B22] yielded an inhibition at 25 µM of 20%.
Work on `C[n+]1cccc(-c2c3nc(c(-c4ccccc4)c4ccc([nH]4)c(-c4ccc[n+](C)c4)c4nc(c(-c5ccccc5)c5ccc2[nH]5)C=C4)C=C3)c1` [Compound B9, 5,15-Diphenyl-10,20-di(N-methyl-3-pyridyl)porphyrin chloride] yielded an inhibition at 25 µM of 18%.
Compound `C[n+]1ccc(-c2c3nc(c(-c4ccccc4)c4ccc([nH]4)c(-c4ccccc4)c4nc(c(-c5ccccc5)c5ccc2[nH]5)C=C4)C=C3)cc1` [Compound B24] has an inhibition at 25 µM of 34%.
With `C[n+]1ccc(-c2c3nc(c(-c4ccccc4)c4ccc([nH]4)c(-c4cc[n+](C)cc4)c4nc(c(-c5ccccc5)c5ccc2[nH]5)C=C4)C=C3)cc1` [Compound B4, 5,15-Diphenyl-10,20-di(N-methyl-4-pyridyl)porphyrin chloride] the inhibition at 25 µM was 30%.
`C[n+]1cccc(-c2c3nc(c(-c4ccccc4)c4ccc([nH]4)c(-c4ccccc4)c4nc(c(-c5ccccc5)c5ccc2[nH]5)C=C4)C=C3)c1` [Compound B25] was tested, and the inhibition at 25 µM was 35%.
Compound `C[n+]1ccccc1-c1c2nc(c(-c3ccccc3)c3ccc([nH]3)c(-c3ccccc3)c3nc(c(-c4ccccc4)c4ccc1[nH]4)C=C3)C=C2` [Compound B26] has an inhibition at 25 µM of 0%.

Same assay, conditions: 25 μM; Table 9; read-out: % Inhibition of telomerase
For `O=[N+]([O-])c1cc(-c2c3nc(cc4ccc([nH]4)c(-c4ccc(O)c([N+](=O)[O-])c4)c4nc(cc5ccc2[nH]5)C=C4)C=C3)ccc1O` [Compound D14], the inhibition at 25 µM was 55%.
`COc1ccc(-c2c3nc(c(-c4ccc(OC)c(O)c4)c4ccc([nH]4)c(-c4ccc(OC)c(O)c4)c4nc(c(-c5ccc(OC)c(O)c5)c5ccc2[nH]5)C=C4)C=C3)cc1O` [Compound D17, 5,10,15,20-tetra-(4-methoxy-3-hydroxyphenyl)porphine] gave an inhibition at 25 µM of 50%.

Same assay, conditions: 25 μM; Table 10
For “5,10-di-(N-methyl-4-pyridyl)-15,20-di-(3-nitrophenyl)porphine chloride [Compound D20]”, the “% Inhibition of telomerase” value was 70%.

Same assay, conditions: 25 μM; Table 13; read-out: % Inhibition of telomerase
Compound `Nc1cccc(-c2c3nc(c(-c4cccc(N)c4)c4ccc([nH]4)c(-c4cccc(N)c4)c4nc(c(-c5cccc(N)c5)c5ccc2[nH]5)C=C4)C=C3)c1` [Compound B2, Tetra-(3-aminophenyl)porphyrin] has an inhibition at 25 µM of 15%.
In the case of `C[n+]1ccc(-c2c3nc(c(-c4ccccc4)c4ccc([nH]4)c(-c4cc[n+](C)cc4)c4nc(c(-c5ccccc5)c5ccc2[nH]5)C=C4)C=C3)cc1` [Compound B4, 5,15-Diphenyl-10,20-di(N-methyl-4-pyridyl)porphyrin chloride], the inhibition at 25 µM is reported as 47%.
`Nc1ccc(-c2c3nc(c(-c4ccc(N)cc4)c4ccc([nH]4)c(-c4ccc(N)cc4)c4nc(c(-c5ccc(N)cc5)c5ccc2[nH]5)C=C4)C=C3)cc1` [Compound B1, Tetra-(4-aminophenyl)porphyrin] gave an inhibition at 25 µM of 50%.
`Nc1ccccc1-c1c2nc(c(-c3ccccc3N)c3ccc([nH]3)c(-c3ccccc3N)c3nc(c(-c4ccccc4N)c4ccc1[nH]4)C=C3)C=C2` [Compound B3, Tetra-(2-aminophenyl)porphyrin] showed an inhibition at 25 µM of 3%.
With `C[N+](C)(C)c1ccc(-c2c3nc(c(-c4ccc([N+](C)(C)C)cc4)c4ccc([nH]4)c(-c4ccc([N+](C)(C)C)cc4)c4nc(c(-c5ccc([N+](C)(C)C)cc5)c5ccc2[nH]5)C=C4)C=C3)cc1` [TAP (B23), tetra(N,N,N-trimethyl-4-aminophenyl)porphyrin chloride] the inhibition at 25 µM was 18%.

Same assay, conditions: Table 15; concentration fixed at 25 μM; 25 µM
In the case of `C=CC1=C(C)c2cc3[nH]c(cc4nc(cc5[nH]c(cc1n2)c(C)c5C=C)C(C)=C4CCC(=O)O)c(CCC(=O)O)c3C` [Compound H19], the “% Inhibition of telomerase” value is reported as 16%.

Same assay, conditions: Table 15; concentration fixed at 25 μM; read-out: % Inhibition of telomerase
`CCC1=C(C)c2cc3[nH]c(cc4nc(cc5[nH]c(cc1n2)c(C)c5CC)C(C)=C4CC)c(CC)c3C` [Compound H2] gave an inhibition at 25 µM of 0%.
Work on `O=C(O)CCC1=C(CC(=O)O)c2cc3[nH]c(cc4nc(cc5[nH]c(cc1n2)c(CCC(=O)O)c5CC(=O)O)C(CC(=O)O)=C4CCC(=O)O)c(CCC(=O)O)c3CC(=O)O` [Compound H24] yielded an inhibition at 25 µM of 4%.
In the case of `CC(=O)C1=C(C)c2cc3[nH]c(cc4nc(cc5[nH]c(cc1n2)c(C)c5C(C)=O)C(C)=C4CCC(=O)O)c(C)c3CCC(=O)O` [Compound H29], the inhibition at 25 µM is reported as 0%.
Work on `C=CC1=C(C)c2cc3[nH]c(cc4nc(cc5[nH]c(cc1n2)c(C)c5C=C)C(C)=C4CCCO)c(CCCO)c3C` [Compound H27] yielded an inhibition at 25 µM of 24%.
`CCC1=C(CC)c2cc3[nH]c(cc4nc(cc5[nH]c(cc1n2)c(CC)c5CC)C(CC)=C4CC)c(CC)c3CC` [Compound H1] gave an inhibition at 25 µM of 12%.
For `CC1=C(C=O)c2cc3[nH]c(cc4nc(cc5[nH]c(cc1n2)c(CCC(=O)O)c5C)C(CCC(=O)O)=C4C)c(C=O)c3C` [Compound H31], the inhibition at 25 µM was -10%.
Work on `COC(=O)CCC1=C(C)c2cc3[nH]c(cc4nc(cc5[nH]c(cc1n2)c(C)c5CCC(=O)OC)C(C)=C4C)c(C)c3C` [Compound H30] yielded an inhibition at 25 µM of 23%.
In the case of `CCC1=C(C)c2cc3[nH]c(cc4nc(cc5[nH]c(cc1n2)c(C)c5CC)C(C)=C4CCCO)c(CCCO)c3C` [Compound H26], the inhibition at 25 µM is reported as 23%.
Work on `COC(=O)CCC1=C(CC(=O)OC)c2cc3[nH]c(cc4nc(cc5[nH]c(cc1n2)c(CCC(=O)OC)c5CC(=O)OC)C(CC(=O)OC)=C4CCC(=O)OC)c(CCC(=O)OC)c3CC(=O)OC` [Compound H22] yielded an inhibition at 25 µM of 19%.
Compound `CC1=C(CCC(=O)O)c2cc3[nH]c(cc4nc(cc5[nH]c(cc1n2)c(C(C)O)c5C)C(C(C)O)=C4C)c(C)c3CCC(=O)O` (stereo not drawn) [Compound H12] has an inhibition at 25 µM of 18%.
With `COC(=O)CCC1=C(C)c2cc3cc(C)c(cc4nc(cc5[nH]c(cc1n2)c(CCC(=O)OC)c5C)C(C)=C4)[nH]3` [Compound H7] the inhibition at 25 µM was 14%.
`C=CC1=C(C)c2cc3[nH]c(cc4nc(cc5[nH]c(cc1n2)c(C)c5C=C)C(C)=C4CCC(=O)O)c(CCC(=O)O)c3C` [Compound H18] was tested, and the inhibition at 25 µM was 17%.
`COC(=O)CCC1=C(C)c2cc3[nH]c(cc4nc(cc5[nH]c(cc1n2)c(CCC(=O)OC)c5C)C(C)=C4CCC(=O)OC)c(CCC(=O)OC)c3C` [Compound H21] showed an inhibition at 25 µM of 33%.
Compound `C=CC1=C(C)c2cc3[nH]c(cc4nc(cc5[nH]c(cc1n2)c(C)c5C=C)C(C)=C4CCC(=O)OC)c(CCC(=O)OC)c3C` [Compound H17] has an inhibition at 25 µM of 6%.
Compound `CCC1=C(C)c2cc3[nH]c(cc4nc(cc5[nH]c(cc1n2)c(C)c5CC)C(C)=C4)c(C)c3CC(=O)OC` [Compound H32] has an inhibition at 25 µM of 0%.
`COC(=O)CCC1=C(C)c2cc3[nH]c(cc4nc(cc5[nH]c(cc1n2)c(CCC(=O)OC)c5C)C(C)=C4C(C)=O)c(C)c3C(C)=O` [Compound H9] showed an inhibition at 25 µM of 14%.
Compound `COC(=O)CCC1=C(C)c2cc3[nH]c(cc4nc(cc5[nH]c(cc1n2)c(CCC(=O)OC)c5C)C(C)=C4S(=O)(=O)O)c(C)c3S(=O)(=O)O` [Compound H8] has an inhibition at 25 µM of 24%.
Work on `CCC1=C(C)c2cc3[nH]c(cc4nc(cc5[nH]c(cc1n2)c(C)c5CC)C(C)=C4CCC(=O)O)c(CCC(=O)O)c3C` [Compound H15] yielded an inhibition at 25 µM of 6%.
For `CCOC(=O)CCC1=C(C)c2cc3[nH]c(cc4nc(cc5[nH]c(cc1n2)c(CC)c5C)C(CC)=C4C)c(C)c3C` [Compound H28], the inhibition at 25 µM was 0%.
Compound `COC(=O)CCC1=C(C)c2cc3[nH]c(cc4nc(cc5[nH]c(cc1n2)c(CCC(=O)OC)c5C)C(C)=C4Br)c(C)c3Br` [Compound H10] has an inhibition at 25 µM of 0%.
With `CCC1=C(C)c2cc3[nH]c(cc4nc(cc5[nH]c(cc1n2)c(C)c5CC)C(C)=C4CCC(=O)OC)c(CCC(=O)OC)c3C` [Compound H16] the inhibition at 25 µM was 0%.
Work on `CC1=C(CCC(=O)O)c2cc3[nH]c(cc4nc(cc5[nH]c(cc1n2)c(C)c5CCC(=O)O)C(CCC(=O)O)=C4C)c(C)c3CCC(=O)O` [Compound H23] yielded an inhibition at 25 µM of 5%.
`COC(=O)CCC1=C(C)c2cc3[nH]c(cc4nc(cc5[nH]c(cc1n2)c(CCC(=O)OC)c5C)C(C)=C4C(C)O)c(C)c3C(C)O` (stereo not drawn) [Compound H11] gave an inhibition at 25 µM of 20%.
